Here are results for 19 molecules from patent publication US20110207723A1, “NOVEL FUSED AMINODIHYDROTHIAZINE DERIVATIVE” (EISAI R&D MANAGEMENT CO., LTD., priority 2008, published 2011).

pIC50: −log10 of the molar value.

The test concerns Aβ42 production. Briefly: Quantification of Aβ peptide in culture of neurons from rat fetus brain (Aβ42 ELISA). The class given is cell-based. The conditions noted are these: Neuron, 72 h, rat primary neuronal culture (embryonic day 18 Wistar rat cerebral cortex), medium collected three days after addition of compound, read-out: Aβ42 production reducing effect IC50. As for the experimental part:
Quantification of Aβ Peptide in Culture of Neurons from Rat Fetus Brain
Primary neuronal cultures were prepared from the cerebral cortex of embryonic day 18 Wistar rats (Charles River Japan, Yokohama, Japan). Specifically, the embryos were aseptically removed from pregnant rats under ether anesthesia. The brain was isolated from the embryo and immersed in an ice-cold L-15 medium (such as Invitrogen Corp. Cat #11415-064, Carlsbad, Calif., USA, or SIGMA L1518). The cerebral cortex was collected from the isolated brain under a stereoscopic microscope. The cerebral cortex fragments collected were enzymatically treated in an enzyme solution containing 0.25% trypsin (Invitrogen Corp. Cat #15050-065, Carlsbad, Calif., USA) and 0.01% DNase (Sigma D5025, St. Louis, Mo., USA) at 37° C. for 30 minutes to disperse the cells. Here, the enzymatic reaction was stopped by adding inactivated horse serum to the solution. The enzymatically treated solution was centrifuged at 1,500 rpm for five minutes to remove the supernatant. 5 to 10 ml of a medium was added to the resulting cell mass. Neurobasal medium (Invitrogen Corp. Cat #21103-049, Carlsbad, Calif., USA) supplemented with 2% B27 supplement (Invitrogen Corp. Cat #17504-044, Carlsbad, Calif., USA), 25 μM 2-mercaptoethanol (2-ME, WAKO Cat #139-06861, Osaka, Japan), 0.5 mM L-glutamine (Invitrogen Corp. Cat #25030-081, Carlsbad, Calif., USA), and Antibiotics-Antimycotics (Invitrogen Corp. Cat #15240-062, Carlsbad, Calif., USA) was used as the medium (Neurobasal/B27/2-ME). However, the above Neurobasal medium not supplemented with 2-ME (Neurobasal/B27) was used for the assay. The cells were redispersed by mild pipetting of the cell mass to which the medium was added. The cell dispersion was filtered through a 40-μm nylon mesh (Cell Strainer, Cat #35-2340, Becton Dickinson Labware, Franklin Lakes, N.J., USA) to remove the remaining cell mass, and thus a neuronal cell suspension was obtained. The neuronal cell suspension was diluted with the medium and then plated in a volume of 100 μl/well at an initial cell density of 5×10^5 cells/cm^2 in a 96-well polystyrene culture plate pre-coated with poly-L or D-lysine (Falcon Cat #35-3075, Becton Dickinson Labware, Franklin Lakes, N.J., USA coated with poly-L-lysine using the method shown below, or BIOCOAT™ cell environments Poly-D-lysine cell ware 96-well plate, Cat #35-6461, Becton Dickinson Labware, Franklin Lakes, N.J., USA). Poly-L-lysine coating was carried out as follows. 100 μg/ml of a poly-L-lysine (SIGMA P2636, St. Louis, Mo., USA) solution was aseptically prepared with a 0.15 M borate buffer (pH 8.5). […] of the solution was added to the 96-well polystyrene culture plate and incubated at room temperature for one or more hours or at 4° C. overnight or longer. Thereafter, the coated 96-well polystyrene culture plate was washed with sterile water four or more times, and then dried or rinsed with, for example, sterile PBS or medium, and used for cell plating. The plated cells were cultured in the culture plate at 37° C. in 5% CO2-95% air for one day. Then, the total amount of the medium was replaced with a fresh Neurobasal/B27/2-ME medium, and then the cells were cultured for further three days.
The drug was added to the culture plate on Day 4 of culture as follows. The total amount of the medium was removed from the wells, and 180 μl/well of Neurobasal medium not containing 2-ME and containing 2% B-27 (Neurobasal/B27) was added thereto. A solution of the test compound in dimethyl sulfoxide (hereinafter abbreviated as DMSO) was diluted with Neurobasal/B27 to a concentration 10-fold higher than the final concentration. 20 μl/well of the dilution was added to and sufficiently mixed with the medium. The final DMSO concentration was 1% or less. Only DMSO was added to the control group.
The cells were cultured for three days after addition of the compound, and the total amount of the medium was collected. […]

On to `NC1=N[C@@]2(c3cc(NC(=O)c4ccc(C(F)(F)F)cn4)ccc3F)COC[C@@H](F)[C@H]2CS1` [Example 19, N-[3-((4aS,5S,8aS)-2-amino-5-fluoro-4,4a,5,6-tetrahydro-7-oxa-3-thia-1-azanaphthalen-8a-yl)-4-fluorophenyl]-5-trifluoromethylpyridine-2-carboxamide], for which the pIC50 (commonly the negative decadic logarithm of the IC50, by convention in mol/L) was 8.70.
`N#Cc1ccc(C(=O)Nc2ccc(F)c([C@]34CO[C@@H](CF)C[C@H]3CSC(N)=N4)c2)nc1` [Example 44, N-[3-((4aR,6R,8aS)-2-amino-6-fluoromethyl-4,4a,5,6-tetrahydro-7-oxa-3-thia-1-azanaphthalen-8a-yl)-4-fluorophenyl]-5-cyanopyridine-2-carboxamide]: the pIC50 was 9.15.
The result for `NC1=N[C@@]2(c3cc(NC(=O)c4ccc(OC(F)F)cn4)ccc3F)COCC[C@H]2CS1` (single isomer, unassigned) [Example 58, N-[3-((4aR*,8aS*)-2-amino-4,4a,5,6-tetrahydro-7-oxa-3-thia-1-azanaphthalen-8a-yl)-4-fluorophenyl]-5-difluoromethoxypyridine-2-carboxamide] reads 8.40; that for `C[C@H]1C[C@H]2CSC(N)=N[C@@]2(c2cc(NC(=O)c3cnc(OCF)cn3)ccc2F)CO1` (relative stereo) [Example 10, N-[3-((4aR*,6S*,8aS*)-2-amino-6-methyl-4,4a,5,6-tetrahydro-7-oxa-3-thia-1-azanaphthalen-8a-yl)-4-fluorophenyl]-5-fluoromethoxypyrazine-2-carboxamide], 9.00; that for `C[C@H]1C[C@H]2CSC(N)=N[C@@]2(c2cc(NC(=O)c3cnc(OC(F)F)cn3)ccc2F)CO1` (relative stereo) [Example 9, N-[3-((4aR*,6S*,8aS*)-2-amino-6-methyl-4,4a,5,6-tetrahydro-7-oxa-3-thia-1-azanaphthalen-8a-yl)-4-fluorophenyl]-5-difluoromethoxypyrazine-2-carboxamide], 9.22.
For the molecule `COC[C@H]1C[C@H]2CSC(N)=N[C@@]2(c2cc(NC(=O)c3ccc(Cl)cn3)ccc2F)CO1` (relative stereo) [Example 13, N-[3-((4aR*,6R*,8aS*)-2-amino-6-methoxymethyl-4,4a,5,6-tetrahydro-7-oxa-3-thia-1-azanaphthalen-8a-yl)-4-fluorophenyl]-5-chloropyridine-2-carboxamide], the pIC50 is 9.00.
`NC1=N[C@@]2(c3cc(NC(=O)c4cnc(C(F)F)cn4)ccc3F)CO[C@@H](CF)C[C@H]2CS1` [Example 48, N-[3-((4aR,6R,8aS)-2-amino-6-fluoromethyl-4,4a,5,6-tetrahydro-7-oxa-3-thia-1-azanaphthalen-8a-yl)-4-fluorophenyl]-5-difluoromethylpyrazine-2-carboxamide]: the pIC50 is 8.70.
As for `NC1=N[C@@]2(c3cc(NC(=O)c4ccc(C(F)(F)F)cn4)ccc3F)CO[C@@H](CF)C[C@H]2CS1` [Example 46, N-[3-((4aR,6R,8aS)-2-amino-6-fluoromethyl-4,4a,5,6-tetrahydro-7-oxa-3-thia-1-azanaphthalen-8a-yl)-4-fluorophenyl]-5-trifluoromethylpyridine-2-carboxamide], the pIC50 is 9.00.
The result for `NC1=N[C@@]2(c3cc(NC(=O)c4ncc(Cl)cc4Cl)ccc3F)COCC[C@H]2CS1` (single isomer, unassigned) [Example 52, N-[3-((4aR*,8aS*)-2-amino-4,4a,5,6-tetrahydro-7-oxa-3-thia-1-azanaphthalen-8a-yl)-4-fluorophenyl]-3,5-dichloropyridine-2-carboxamide] reads 8.70; that for `NC1=N[C@@]2(c3cc(NC(=O)c4cnc(C(F)F)cn4)ccc3F)COCC[C@H]2CS1` (single isomer, unassigned) [Example 57, N-[3-((4aR*,8aS*)-2-amino-4,4a,5,6-tetrahydro-7-oxa-3-thia-1-azanaphthalen-8a-yl)-4-fluorophenyl]-5-difluoromethylpyrazine-2-carboxamide], 8.70; that for `C[C@H]1C[C@H]2CSC(N)=N[C@@]2(c2cc(NC(=O)c3ccc(C#N)cn3)ccc2F)CO1` (relative stereo) [Example 7, N-[3-((4aR*,6S*,8aS*)-2-amino-6-methyl-4,4a,5,6-tetrahydro-7-oxa-3-thia-1-azanaphthalen-8a-yl)-4-fluorophenyl]-5-cyanopyridine-2-carboxamide], 9.15.
With `NC1=N[C@@]2(c3cc(NC(=O)c4cnc(OCF)cn4)ccc3F)CO[C@@H](CF)C[C@H]2CS1` [Example 47, N-[3-((4aR,6R,8aS)-2-amino-6-fluoromethyl-4,4a,5,6-tetrahydro-7-oxa-3-thia-1-azanaphthalen-8a-yl)-4-fluorophenyl]-5-fluoromethoxypyrazine-2-carboxamide] the figure was 8.40.
As to `N#Cc1ccc(C(=O)Nc2csc(C34COCCC3CSC(N)=N4)c2)nc1` (stereo in doubt) [Example 64, N-[5-((4aR*,8aS*)-2-amino-4,4a,5,6-tetrahydro-7-oxa-3-thia-1-azanaphthalen-8a-yl)thiophen-3-yl]-5-cyanopyridine-2-carboxamide], the pIC50 is 7.85.
With `NC1=N[C@@]2(c3cc(NC(=O)c4cnc(C(F)F)cn4)ccc3F)COC[C@@H](F)[C@H]2CS1` [Example 17, N-[3-((4aS,5S,8aS)-2-amino-5-fluoro-4,4a,5,6-tetrahydro-7-oxa-3-thia-1-azanaphthalen-8a-yl)-4-fluorophenyl]-5-difluoromethylpyrazine-2-carboxamide] the figure was 8.40; with `N#Cc1ccc(C(=O)Nc2ccc(F)c([C@]34CO[C@@H](CO)C[C@H]3CSC(N)=N4)c2)nc1` [Example 34, N-[3-((4aR,6R,8aS)-2-amino-6-hydroxymethyl-4,4a,5,6-tetrahydro-7-oxa-3-thia-1-azanaphthalen-8a-yl)-4-fluorophenyl]-5-cyanopyridine-2-carboxamide], 8.70; with `C[C@H]1COC[C@]2(c3cc(NC(=O)c4cnc(OC(F)F)cn4)ccc3F)N=C(N)SC[C@H]12` (relative stereo) [Example 28, N-[3-((4aR*,5R*,8aS*)-2-amino-5-methyl-4,4a,5,6-tetrahydro-7-oxa-3-thia-1-azanaphthalen-8a-yl)-4-fluorophenyl]-5-difluoromethoxypyrazine-2-carboxamide], 8.85.
With `C[C@H]1C[C@H]2CSC(N)=N[C@@]2(c2cc(NC(=O)c3ccc(Cl)cn3)ccc2F)CO1` (relative stereo) [Example 6, N-[3-((4aR*,6S*,8aS*)-2-amino-6-methyl-4,4a,5,6-tetrahydro-7-oxa-3-thia-1-azanaphthalen-8a-yl)-4-fluorophenyl]-5-chloropyridine-2-carboxamide] the figure was 8.92; with `NC1=N[C@@]2(c3cc(NC(=O)c4ncc(F)cc4F)ccc3F)COCC[C@H]2CS1` (single isomer, unassigned) [Example 51, N-[3-((4aR*,8aS*)-2-amino-4,4a,5,6-tetrahydro-7-oxa-3-thia-1-azanaphthalen-8a-yl)-4-fluorophenyl]-3,5-difluoropyridine-2-carboxamide], 8.22; with `N#Cc1ccc(C(=O)Nc2ccc(F)c([C@]34COC[C@@H](F)[C@H]3CSC(N)=N4)c2)nc1` [Example 16, N-[3-((4aS,5S,8aS)-2-amino-5-fluoro-4,4a,5,6-tetrahydro-7-oxa-3-thia-1-azanaphthalen-8a-yl)-4-fluorophenyl]-5-cyanopyridine-2-carboxamide], 8.96.
